Laboratory results taken from patent publication US20170369529A1, “CELL PENETRATING PEPTIDES” (Hoffmann-La Roche Inc., priority 2014, published 2017).
Positions of bridges follow the written chain, without caps; N, C: chain ends. Non-standard residues stand in square brackets, D forms with d. Nle = CCCC[C@H](N)C(=O)O; AEEA = NCCOCCOCC(=O)O; Fluo = fluorescein

Experiments:
Assay type in all cases: cell-based
[1] = test system: HeLa cells; experiment: Cell penetration (cellular uptake by confocal microscopy) in HeLa cells; details: 2 μM CPP; for localization of fluorescence in HeLa cells / penetration of HeLa cells (in words): confocal microscopy; for penetration of HeLa cells (in words): intracellular signal; for cell penetration, HeLa(t2 h): t 2 h
Method: (§1) The peptides of the invention were tested for cell penetration in HeLa and HEK293T cell lines.
(§2) Materials: The HeLa (DSMZ) and HEK293T cells were maintained in growth media and then passaged every 2-3 days. Growth media for HeLa cells was RPMI 1640, 10% fetal calf serum, MEM-non-essential amino acids, sodium pyruvate and L-glutamine (GIBCO). Growth media for HEK293T DMEM was supplemented with 10% fetal calf serum, MEM-non-essential amino acids, sodium pyruvate and glutamine (all GIBCO).
(§3) Methods and Procedures: Cells were plated onto μ-slide 8 well chambered coverslips (IBIDI) with ibidi standard-bottom and cultured overnight. Peptide stocks were prepared in MillQ and were diluted in cell growth media for cellular uptake studies. Cells were carefully washed with culture medium without fetal calf serum, incubated with 2 μM CPP concentration in absence of fetal calf serum and analyzed by confocal microscopy regarding uptake efficiency and localization over 2 h at 37° C. Finally, trypan blue (0.4% end concentration) was administered to quench cell surface fluorescence followed by an endpoint imaging step. Plates were imaged with an excitation at 488 nm and detection of fluorescence over 500-550 nm (fluorescein) using a TCS SP5 confocal microscope (Leica 174 Microsystems, Mannheim, Germany) equipped with an HCX PL APO 175 63×N.A. 1.2 water immersion lens and a temperature-controlled microscope stage.

[2] = test system: Jurkat; experiment: Cell penetration (cellular uptake by confocal microscopy) in Jurkat cells; details: t 2 h, 2 μM CPP, no fetal calf serum, 37° C., fluorescein fluorescence
Method: as §3

[3] = test system: HEK293T cells; experiment: Cell penetration (cellular uptake by confocal microscopy) in HEK293T cells; details: 2 μM CPP; for cell penetration, HEK293T (t2 h): t 2 h, no fetal calf serum, 37° C., fluorescein fluorescence
Method: as §1, §2, §3

[4] = no fetal calf serum, 37° C., fluorescein fluorescence

| Substance | localization of fluorescence in HeLa cells [1] | penetration of HeLa cells (in words) [1] | cell penetration, HeLa (t30 min) ([1]; t 30 min, no fetal calf serum, 37° C., fluorescein fluorescence) | cell penetration, HeLa(t2 h) [1, 4] | cell penetration, Jurkat (t2 h) [2] | cell penetration, HEK293T (t2 h) [3] | localization of fluorescence in HEK293T cells ([3]; confocal microscopy) |
| --- | --- | --- | --- | --- | --- | --- | --- |
| Fluo-Met-Ile-Ile-Leu-Ile-Ile-Gly-Ser-Thr-Ser-Arg-Asp-His-Met-Val-Leu-His-Glu-Tyr-Val-Asn-Ala-Ala-Gly-Ile-Thr-NH2 (fluorescein-MIILIIGSTSRDHMVLHEYVNAAGIT-NH2) [Example 1] | localized in endosomes and cytosol | high | 0.13 | 0.11 |  |  |  |
| Fluo-(D-Met)-Ile-(D-Ile)-Leu-Ile-Ile-Gly-Ser-Thr-Ser-Arg-Asp-His-Nle-Val-Leu-His-Glu-Tyr-Val-Asn-Ala-Ala-Gly-Ile-Thr-Ado-NH2 (Fluo-[dM]I[dI]LIIGSTSRDH[Nle]VLHEYVNAAGIT-{AEEA-NH2}) [Example 5] |  | low intracellular signals |  | 0.22 | 0.18 | 0.5 |  |
| Fluo-Phe-Ile-cyclo(Asp-Ile-Ile-Ile-Lys)-Ile-Leu-Leu-Ile-Gly-Ser-Thr-Ser-Arg-Asp-His-Nle-Val-Leu-His-Glu-Tyr-Val-Asn-Ala-Ala-Gly-Ile-Thr-Ado-NH2 (Fluo-FIDIIIKILLIGSTSRDH[Nle]VLHEYVNAAGIT-{AEEA-NH2}; lactam 3-7) [Example 7] | localized in endosomes | high |  | 0.28 | 1.35 | 0.28 | pronounced cytosolic and partly endosomal fluorescence |
| Fluo-Nle-Ile-Ile-Leu-Ile-Ile-Gly-Ser-Thr-Ser-Arg-Asp-His-Nle-Val-Leu-His-Glu-Tyr-Val-Asn-Ala-Ala-Gly-Ile-Thr-Ado-NH2 (Fluo-[Nle]IILIIGSTSRDH[Nle]VLHEYVNAAGIT-{AEEA-NH2}) [Example 4] |  |  |  | 0.12 | 0.85 | 0.16 |  |
| Fluo-cyclo(Lys-Ile-Ile-Ile-Ile-Asp)-Gly-Ser-Thr-Ser-Arg-Asp-His-Nle-Val-Leu-His-Glu-Tyr-Val-Asn-Ala-Ala-Gly-Ile-Thr-Ado-NH2 (Fluo-KIIIIDGSTSRDH[Nle]VLHEYVNAAGIT-{AEEA-NH2}; lactam 1-6) [Example 2] |  | low intracellular signals |  | 0.18 | 0.9 | 0.23 |  |
| Fluo-cyclo(Lys-Nle-Ile-Ile-Leu-Ile-Ile-Asp)-Gly-Ser-Thr-Ser-Arg-Asp-His-Nle-Val-Leu-His-Glu-Tyr-Val-Asn-Ala-Ala-Gly-Ile-Thr-Ado-NH2 (Fluo-K[Nle]IILIIDGSTSRDH[Nle]VLHEYVNAAGIT-{AEEA-NH2}; lactam 1-8) [Example 3] |  | low intracellular signals |  | 0.28 | 0.77 | 0.35 |  |
| Fluo-Met-Ile-Ile-Leu-Ile-Ile-Met-Gly-Val-Ala-Asp-Leu-Ile-Lys-Lys-Phe-Glu-Ser-Ile-Ser-Lys-Glu-Glu-NH2 [Example 6] |  | low intracellular signals |  | 0.14 | 0.44 | 0.08 |  |
